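Cultured in 96-well plates, cells were exposed to test compound for 48 hours across five concentrations. GI50 is the concentration that inhibits growth by half.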 Active and inactive are the calls of the source. Cut-off read from the data, not from the text of the source: active = GI50 up to about 1.1 µM and inactive = higher.
What was measured:
Assay in all cases: NCI tumour cell line growth inhibition, 48 h
786-0 = tested on: 786-0
A498 = tested on: A498
A549 = tested on: A549
ACHN = tested on: ACHN
BT-549 = tested on: BT-549
CAKI-1 = tested on: CAKI-1
CCRF-CEM = tested on: CCRF-CEM
COLO 205 = tested on: COLO 205
DU-145 = tested on: DU-145
EKVX = tested on: EKVX
HCC 2998 = tested on: HCC 2998
HCT-116 = tested on: HCT-116
HCT-15 = tested on: HCT-15
HL-60 = tested on: HL-60
HOP-62 = tested on: HOP-62
HOP-92 = tested on: HOP-92
HT-29 = tested on: HT-29
Hs-578T = tested on: Hs-578T
IGROV-1 = tested on: IGROV-1
K562 = tested on: K562
KM12 = tested on: KM12
LOX IMVI = tested on: LOX IMVI
M14 = tested on: M14
MCF7 = tested on: MCF7
MDA-MB-231 = tested on: MDA-MB-231
MDA-MB-435 = tested on: MDA-MB-435
MDA-N = tested on: MDA-N
MOLT-4 = tested on: MOLT-4
Malme-3M = tested on: Malme-3M
NCI-H226 = tested on: NCI-H226
NCI-H23 = tested on: NCI-H23
NCI-H460 = tested on: NCI-H460
NCI-H522 = tested on: NCI-H522
NCI/ADR-RES = tested on: NCI/ADR-RES
OVCAR-3 = tested on: OVCAR-3
OVCAR-4 = tested on: OVCAR-4
OVCAR-5 = tested on: OVCAR-5
OVCAR-8 = tested on: OVCAR-8
PC-3 = tested on: PC-3
RPMI-8226 = tested on: RPMI-8226
RXF 393 = tested on: RXF 393
SF-268 = tested on: SF-268
SF-295 = tested on: SF-295
SF-539 = tested on: SF-539
SK-MEL-28 = tested on: SK-MEL-28
SK-MEL-2 = tested on: SK-MEL-2
SK-MEL-5 = tested on: SK-MEL-5
SK-OV-3 = tested on: SK-OV-3
SN12C = tested on: SN12C
SNB-19 = tested on: SNB-19
SNB-75 = tested on: SNB-75
SR = tested on: SR
SW-620 = tested on: SW-620
T47D = tested on: T47D
TK-10 = tested on: TK-10
U-251 = tested on: U-251
UACC-257 = tested on: UACC-257
UACC-62 = tested on: UACC-62
UO-31 = tested on: UO-31

COc1c2ccccc2c(OC)c2nc(C)ccc12
GI50 (786-0): 51.9 µM (inactive)
GI50 (A498): > 100 µM (inactive)
GI50 (A549): > 100 µM (inactive)
GI50 (ACHN): > 100 µM (inactive)
GI50 (BT-549): > 79.1 µM (inactive)
GI50 (CAKI-1): > 94 µM (inactive)
GI50 (CCRF-CEM): 23.7 µM (inactive)
GI50 (COLO 205): 56.1 µM (inactive)
GI50 (DU-145): > 100 µM (inactive)
GI50 (EKVX): > 100 µM (inactive)
GI50 (HCC 2998): > 100 µM (inactive)
GI50 (HCT-116): > 80.2 µM (inactive)
GI50 (HCT-15): 41.3 µM
GI50 (HL-60): 26.8 µM (inactive)
GI50 (HOP-62): > 100 µM (inactive)
GI50 (HOP-92): > 100 µM (inactive)
GI50 (HT-29): 49.3 µM (inactive)
GI50 (Hs-578T): > 100 µM (inactive)
GI50 (IGROV-1): > 100 µM (inactive)
GI50 (K562): 30.6 µM (inactive)
GI50 (KM12): > 100 µM (inactive)
GI50 (LOX IMVI): 23.7 µM (inactive)
GI50 (M14): > 100 µM (inactive)
GI50 (MCF7): > 74 µM (inactive)
GI50 (MDA-MB-231): > 100 µM (inactive)
GI50 (MDA-MB-435): > 100 µM (inactive)
GI50 (MDA-N): > 100 µM (inactive)
GI50 (MOLT-4): 40.6 µM (inactive)
GI50 (Malme-3M): > 93.5 µM (inactive)
GI50 (NCI-H226): > 100 µM (inactive)
GI50 (NCI-H23): > 100 µM (inactive)
GI50 (NCI-H460): 39.7 µM (inactive)
GI50 (NCI-H522): 69.7 µM (inactive)
GI50 (NCI/ADR-RES): > 100 µM (inactive)
GI50 (OVCAR-3): > 100 µM (inactive)
GI50 (OVCAR-4): > 100 µM (inactive)
GI50 (OVCAR-5): > 100 µM (inactive)
GI50 (OVCAR-8): > 100 µM (inactive)
GI50 (PC-3): > 91 µM (inactive)
GI50 (RPMI-8226): 81.8 µM (inactive)
GI50 (RXF 393): > 100 µM (inactive)
GI50 (SF-268): > 100 µM (inactive)
GI50 (SF-295): > 100 µM (inactive)
GI50 (SF-539): > 100 µM (inactive)
GI50 (SK-MEL-28): > 100 µM (inactive)
GI50 (SK-MEL-2): > 100 µM (inactive)
GI50 (SK-MEL-5): 71.4 µM (inactive)
GI50 (SK-OV-3): > 100 µM (inactive)
GI50 (SN12C): > 100 µM (inactive)
GI50 (SNB-19): > 100 µM (inactive)
GI50 (SNB-75): > 100 µM (inactive)
GI50 (SR): 30.8 µM (inactive)
GI50 (SW-620): > 100 µM (inactive)
GI50 (T47D): > 100 µM (inactive)
GI50 (TK-10): > 100 µM (inactive)
GI50 (U-251): 42.5 µM (inactive)
GI50 (UACC-257): > 77.3 µM (inactive)
GI50 (UACC-62): > 81.8 µM (inactive)
GI50 (UO-31): > 100 µM (inactive)

CSC(CC(=O)O)C(=O)O (stereo unspecified)
GI50 (786-0): > 100 µM (inactive)
GI50 (A498): > 100 µM (inactive)
GI50 (A549): > 100 µM (inactive)
GI50 (ACHN): > 100 µM (inactive)
GI50 (BT-549): > 100 µM (inactive)
GI50 (CAKI-1): > 100 µM (inactive)
GI50 (CCRF-CEM): > 100 µM (inactive)
GI50 (COLO 205): > 100 µM (inactive)
GI50 (DU-145): > 100 µM (inactive)
GI50 (EKVX): > 100 µM (inactive)
GI50 (HCC 2998): 12.5 µM (inactive)
GI50 (HCT-116): > 100 µM (inactive)
GI50 (HCT-15): > 100 µM
GI50 (HL-60): > 100 µM (inactive)
GI50 (HOP-62): > 100 µM (inactive)
GI50 (HOP-92): > 100 µM (inactive)
GI50 (HT-29): > 100 µM (inactive)
GI50 (Hs-578T): > 100 µM (inactive)
GI50 (IGROV-1): > 100 µM (inactive)
GI50 (KM12): > 100 µM (inactive)
GI50 (LOX IMVI): > 100 µM (inactive)
GI50 (M14): > 100 µM (inactive)
GI50 (MCF7): > 100 µM (inactive)
GI50 (MDA-MB-231): > 100 µM (inactive)
GI50 (MDA-MB-435): > 100 µM (inactive)
GI50 (MDA-N): > 100 µM (inactive)
GI50 (MOLT-4): > 100 µM (inactive)
GI50 (Malme-3M): > 100 µM (inactive)
GI50 (NCI-H226): > 100 µM (inactive)
GI50 (NCI-H23): > 100 µM (inactive)
GI50 (NCI-H460): > 100 µM (inactive)
GI50 (NCI-H522): > 100 µM (inactive)
GI50 (NCI/ADR-RES): > 100 µM (inactive)
GI50 (OVCAR-3): > 100 µM (inactive)
GI50 (OVCAR-4): > 100 µM (inactive)
GI50 (OVCAR-5): > 100 µM (inactive)
GI50 (OVCAR-8): > 100 µM (inactive)
GI50 (PC-3): > 100 µM (inactive)
GI50 (RPMI-8226): > 100 µM (inactive)
GI50 (RXF 393): > 100 µM (inactive)
GI50 (SF-268): > 100 µM (inactive)
GI50 (SF-295): > 100 µM (inactive)
GI50 (SF-539): > 100 µM (inactive)
GI50 (SK-MEL-28): > 100 µM (inactive)
GI50 (SK-MEL-2): > 100 µM (inactive)
GI50 (SK-MEL-5): > 100 µM (inactive)
GI50 (SK-OV-3): > 100 µM (inactive)
GI50 (SN12C): > 100 µM (inactive)
GI50 (SNB-19): > 100 µM (inactive)
GI50 (SNB-75): > 100 µM (inactive)
GI50 (SR): > 100 µM (inactive)
GI50 (SW-620): > 100 µM (inactive)
GI50 (T47D): > 100 µM (inactive)
GI50 (TK-10): > 100 µM (inactive)
GI50 (U-251): > 100 µM (inactive)
GI50 (UACC-257): > 100 µM (inactive)
GI50 (UACC-62): > 100 µM (inactive)
GI50 (UO-31): > 100 µM (inactive)

COC(=O)/C=C1/OC(c2ccc(C)cc2C)=CC1=O
GI50 (786-0): 11 µM (inactive)
GI50 (A498): 20.7 µM (inactive)
GI50 (ACHN): 15.8 µM (inactive)
GI50 (BT-549): 16.3 µM (inactive)
GI50 (CAKI-1): 19.5 µM (inactive)
GI50 (CCRF-CEM): 3.42 µM (inactive)
GI50 (COLO 205): 16.6 µM (inactive)
GI50 (DU-145): 15.5 µM (inactive)
GI50 (EKVX): 65 µM (inactive)
GI50 (HCC 2998): 16.7 µM (inactive)
GI50 (HCT-116): 11.5 µM (inactive)
GI50 (HCT-15): 13.9 µM
GI50 (HL-60): 2.74 µM (inactive)
GI50 (HOP-62): 25.2 µM (inactive)
GI50 (HOP-92): 16.6 µM (inactive)
GI50 (HT-29): 5.18 µM (inactive)
GI50 (Hs-578T): 33.4 µM (inactive)
GI50 (IGROV-1): 4.47 µM (inactive)
GI50 (K562): 2.81 µM (inactive)
GI50 (KM12): 17.6 µM (inactive)
GI50 (LOX IMVI): 6.17 µM (inactive)
GI50 (M14): 15.6 µM (inactive)
GI50 (MCF7): 8.26 µM (inactive)
GI50 (MDA-MB-231): 14.3 µM (inactive)
GI50 (MDA-MB-435): 15.7 µM (inactive)
GI50 (MDA-N): 15.2 µM (inactive)
GI50 (MOLT-4): 3.55 µM (inactive)
GI50 (Malme-3M): 16.4 µM (inactive)
GI50 (NCI-H226): 19.5 µM (inactive)
GI50 (NCI-H23): 24.5 µM (inactive)
GI50 (NCI-H460): 19 µM (inactive)
GI50 (NCI-H522): 14.1 µM (inactive)
GI50 (NCI/ADR-RES): 19.5 µM (inactive)
GI50 (OVCAR-3): 26.9 µM (inactive)
GI50 (OVCAR-4): > 10 µM (inactive)
GI50 (OVCAR-5): 15.7 µM (inactive)
GI50 (OVCAR-8): 10 µM (inactive)
GI50 (PC-3): 17.8 µM (inactive)
GI50 (RPMI-8226): 3.63 µM (inactive)
GI50 (RXF 393): 12.1 µM (inactive)
GI50 (SF-268): 17.8 µM (inactive)
GI50 (SF-539): 17.2 µM (inactive)
GI50 (SK-MEL-28): 19.5 µM (inactive)
GI50 (SK-MEL-5): 16.4 µM (inactive)
GI50 (SK-OV-3): 18.7 µM (inactive)
GI50 (SNB-19): > 10 µM (inactive)
GI50 (SNB-75): 12.9 µM (inactive)
GI50 (SR): 3.4 µM (inactive)
GI50 (SW-620): 2.82 µM (inactive)
GI50 (T47D): 20.1 µM (inactive)
GI50 (TK-10): 17.5 µM (inactive)
GI50 (U-251): 17.4 µM (inactive)
GI50 (UACC-62): 10.6 µM (inactive)
GI50 (UO-31): 16.8 µM (inactive)

From ChEMBL document CHEMBL1201862, “PubChem BioAssay data set” (2004)
